Measured values: patent US11339193B2, “CDP protein secretion inhibitors” (KEZAR LIFE SCIENCES, priority 2018, dated 2022)
Numbered stars: 1 amine (or outer) side, 2 acyl side, 3 side chain; on linkers, the order of the positions; unused ones are H or OH. Square brackets hold non-standard residues; d marks the D form. Peptide text beside a SMILES is read from it. NMeTrp(1-(4-Br-benzyl)) = CN[C@@H](Cc1cn(Cc2ccc(Br)cc2)c2ccccc12)C(=O)O; Butanoyl(2R-oxy,4-CN) = N#CCC[C@@H](O)C(=O)O; NMePhe(4-F) = CN[C@@H](Cc1ccc(F)cc1)C(=O)O; X28 = CCCC[C@H](C)C[C@H](N[*:1])C(=O)[*:2]; Abu(4,4,4-F3) = N[C@@H](CC(F)(F)F)C(=O)O; NMeL = CN[C@@H](CC(C)C)C(=O)O; NMeA = CN[C@@H](C)C(=O)O; dLac = C[C@@H](O)C(=O)O

Key:
Format in all cases: cell-based
[1] = test system: PD1-ss+10aa/Gaussia Luciferase; assay: Dox induced PD1-ss-Gluc assay; settings: Flp-In 293 T-REx cells, doxycycline, 24 hours; read-out: PD1ss Gluc IC50
Procedure, shortened: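 Stable Flp-In 293 T-REx line expressing doxycycline-inducible Gaussia luciferase fused to the PD1 signal sequence plus 10 amino acids. Cells plated the day before, then exposed to compound dilutions in DMSO/media containing doxycycline at 37 °C, 5% CO2.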

[2] = test system: TNFα-FL/Gaussia Luciferase; assay: Dox induced TNFα-FL-Gluc assay; settings: Flp-In 293 T-REx cells, doxycycline, 24 hours; read-out: TNFa FL Gluc IC50
Procedure, shortened: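 Stable Flp-In 293 T-REx line expressing full-length TNFα (aa 1-233) fused at its C-terminus to Gaussia luciferase under doxycycline-inducible control. Cells plated the day before, then given compound dilutions in DMSO/media containing doxycycline and incubated at 37 °C, 5% CO2.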

[3] = test system: NCI-H929 multiple myeloma cell line; assay: H929 assay (cell viability, Celltiter-Glo); settings: Homo sapiens, NCI-H929; 48 hours, cell viability; read-out: H929 EC50
Procedure, shortened: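 Cells plated in RPMI 1640 with 10% FBS and 2 mM glutamine, treated with compound dilutions in DMSO/media. Incubation 48 h at 37° C, 5% CO2. Viability from luciferase luminescence signal.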

[4] = test system: Prl-ss+10aa/Gaussia Luciferase; assay: Prl-ss-Gluc assay (constitutively active or 24 hr Dox inducible); settings: Flp-In 293 T-REx cells, 24 hours; read-out: Prl IC50
Procedure, shortened: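 Stable Flp-In 293 T-REx lines express Prl signal sequence+10aa fused to Gaussia luciferase, either constitutively (pcDNA5/FRT) or under the T-REx promoter (pcDNA5/FRT/TO). Cells plated the day before; compounds in DMSO/media (with doxycycline for the inducible line, 24 h) incubated at 37 °C, 5% CO2.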

[5] = test system: BT474 breast tumor cell line; assay: BT474 assay (Alamar blue); settings: Homo sapiens, BT-474, 72 h
Protocol: (§1) BT474 is a human breast tumor cell line. JJN3 is a human plasma cell leukemia cell line. […] Cells were seeded at 100 000 cells/mL. Aliquots of 5000 cells (50 μL) were added to each well in black, clear bottom 96-well plates. Compounds or control (50 uL of 1% DMSO in cell culture medium) were added to the cells to the indicated final concentrations and cells were incubated for 72 h (unless otherwise specified). After incubation was complete, Alamar blue (10 uL of a 1 mg/mL solution) was added to each well and plates were incubated for 5 h. Fluorescence was then measured (excitation 545 nm, emission 590 nm) and is reported as […] normalized to DMSO control.

[6] = test system: JJN3 plasma cell leukemia cell line; assay: JJN-3 assay (Alamar blue); settings: Homo sapiens, 72 h
Protocol: as §1

[7] = test system: VCAMss+10aa/Gaussia Luciferase; assay: VCAM-ss-Gluc assay (constitutively active or Dox induced); settings: Flp-In 293 T-REx cells, 24 hours
Protocol: Assays Constitutively Active VCAM-ss-Gluc Assay
Transfected cells were selected for resistance to the selectable markers Hygromycin and Blasticidin to create a stable cell line that constitutively expressed the VCAMss+ 10aa/Gaussia Luciferase fusion protein. The day before assay, cells were trypsinized and plated in 384-well tissue culture plates. The next day, culture media was removed from the wells and replaced with fresh media. Compound dilutions in DMSO/media were added to the wells and incubated at 37° C., 5% CO2.
Dox Induced VCAM-ss-Gluc Assay
Transfected cells were selected for resistance to the selectable markers Hygromycin and Blasticidin to create a stable cell line that contained the VCAMss+10aa/Gaussia Luciferase cDNA insert whose expression was regulated under the T-REx™ system. The day before assay, cells were trypsinized and plated in 384-well tissue culture plates. The next day, compound dilutions in DMSO/media containing doxycycline were added to the wells and incubated at 37° C., 5% CO2.

HER3ss-Gluc = assay: HER3ss assay; settings: HEK-293T T-rex cells, transient transfection, doxycycline, 24 h; read-out: HER3 ss IC50
Procedure, shortened: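 HEK-293T T-REx cells were transiently transfected with HER3 signal sequence (plus four mature-domain residues) fused upstream of mature Gaussia luciferase. Cells were induced with doxycycline (1 μg/ml) and exposed to increasing compound concentrations for 24 h, then secreted luciferase in the conditioned medium was read by luminescence.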

**Q.** What does the source list for `CC(C)C[C@@H]1NC(=O)[C@H](Cc2cn(Cc3ccc(Br)cc3)c3ccccc23)N(C)C(=O)[C@H](CC(F)(F)F)NC(=O)[C@H](CC(C)C)N(C)C(=O)[C@H](CC(F)(F)F)NC(=O)[C@@H](CCC#N)OC(=O)[C@H](C)N(C)C1=O` [C-58, 3-((2R,5S,8S,11S,14S,17S,20S)-14-((1-(4-bromobenzyl)-1H-indol-3-yl)methyl)-8,17-diisobutyl-7,13,19,20-tetramethyl-3,6,9,12,15,18,21-heptaoxo-5,11-bis(2,2,2-trifluoroethyl)-1-oxa-4,7,10,13,16,19-hexaazacyclohenicosan-2-yl)propanenitrile] (cyclo(L[NMeA][Butanoyl(2R-oxy,4-CN)][Abu(4,4,4-F3)][NMeL][Abu(4,4,4-F3)][NMeTrp(1-(4-Br-benzyl))]))?
**A.** IC50 [1]: 25 nM; IC50 [2]: 90 nM; EC50 [3]: 629 nM; IC50 [4]: 619 nM; EC50 [5]: 444 nM; EC50 [6]: 111 nM

**Q.** Which IC50 [7] does the source give for `CCCC[C@H](C)C[C@@H]1NC(=O)[C@H](Cc2ccc(F)cc2)N(C)C(=O)[C@H](CC(C)C)NC(=O)[C@H](CC(C)C)N(C)C(=O)[C@H](CC(C)C)NC(=O)[C@@H](C)OC(=O)[C@H](C)N(C)C1=O` [C-69] (cyclo(L[NMeL]L[NMePhe(4-F)][X28][NMeA][dLac])) here?
**A.** The IC50 was 1700 nM.

**Q.** How did the IC50 [7] turn out when `CC(C)C[C@@H]1NC(=O)[C@H](Cc2c[nH]c3ccccc23)N(C)C(=O)[C@H](CC(C)C)NC(=O)[C@H](CC(C)C)N(C)C(=O)[C@H](CC(C)C)NC(=O)[C@@H](CCC#N)OC(=O)[C@H](C)N(C)C1=O` [C-71] (HELM PEPTIDE1{L.[meA].[N#CCC[C@@H](O[*:1])C(=O)[*:2]].L.[meL].L.[meW]}$PEPTIDE1,PEPTIDE1,1:R1-7:R2$$$V2.0) was run?
**A.** The IC50 was 354 nM.

**Q.** And the IC50 (HER3ss-Gluc)?
**A.** Its IC50 is 445 nM.

**Q.** With `CC(C)C[C@@H]1NC(=O)[C@H](Cc2cn(Cc3ccccc3)c3ccccc23)N(C)C(=O)[C@H](CC(C)C)NC(=O)[C@H](CC(C)C)N(C)C(=O)[C@H](CC(C)C)NC(=O)[C@@H](C)OC(=O)[C@H](C)N(C)C1=O` [C-72] (HELM PEPTIDE1{L.[meA].[C[C@@H](O[*:1])C(=O)[*:2]].L.[meL].L.[CN([C@@H](Cc1cn(Cc2ccccc2)c2ccccc12)C(=O)[*:2])[*:1]]}$PEPTIDE1,PEPTIDE1,1:R1-7:R2$$$V2.0) as the compound, how does the IC50 [7] read?
**A.** The IC50 was 327 nM.

**Q.** What about the IC50 (HER3ss-Gluc) of the same compound?
**A.** Its IC50 is 226 nM.

**Q.** With `CC(C)C[C@@H]1NC(=O)[C@H](Cc2cn(Cc3ccccc3)nn2)N(C)C(=O)[C@H](CC(C)C)NC(=O)[C@H](CC(C)C)N(C)C(=O)[C@H](CC(C)C)NC(=O)[C@@H](CCC#N)OC(=O)[C@H](C)N(C)C1=O` [C-73] as the compound, how does the IC50 [7] read?
**A.** The IC50 was 3150 nM.

**Q.** For `CC(C)C[C@@H]1NC(=O)[C@H](Cc2cn(Cc3cccc(OC(F)(F)F)c3)c3ccccc23)N(C)C(=O)[C@H](CC(C)C)NC(=O)[C@H](CC(C)C)N(C)C(=O)[C@H](CC(C)C)NC(=O)[C@@H](CCC#N)OC(=O)[C@H](C)N(C)C1=O` [C-75] (HELM PEPTIDE1{L.[meA].[N#CCC[C@@H](O[*:1])C(=O)[*:2]].L.[meL].L.[CN([C@@H](Cc1cn(Cc2cccc(OC(F)(F)F)c2)c2ccccc12)C(=O)[*:2])[*:1]]}$PEPTIDE1,PEPTIDE1,1:R1-7:R2$$$V2.0), which IC50 (HER3ss-Gluc) is on record?
**A.** The IC50 was 857 nM.

**Q.** And the EC50 [5]?
**A.** The EC50 was 8220 nM.

**Q.** What about the EC50 [6] of the same compound?
**A.** Its EC50 is 920 nM.

**Q.** With `CC(C)C[C@@H]1NC(=O)[C@H](Cc2cn(Cc3cccc(OC(F)F)c3)c3ccccc23)N(C)C(=O)[C@H](CC(C)C)NC(=O)[C@H](CC(C)C)N(C)C(=O)[C@H](CC(C)C)NC(=O)[C@@H](CCC#N)OC(=O)[C@H](C)N(C)C1=O` [C-76] (HELM PEPTIDE1{L.[meA].[N#CCC[C@@H](O[*:1])C(=O)[*:2]].L.[meL].L.[CN([C@@H](Cc1cn(Cc2cccc(OC(F)F)c2)c2ccccc12)C(=O)[*:2])[*:1]]}$PEPTIDE1,PEPTIDE1,1:R1-7:R2$$$V2.0) as the compound, how does the IC50 (HER3ss-Gluc) read?
**A.** The IC50 was 245 nM.

**Q.** What about the EC50 [5] of the same compound?
**A.** The EC50 was 5840 nM.

**Q.** What about the EC50 [6] of the same compound?
**A.** The EC50 was 669 nM.
